From patent publication US5492919A, “5-HT4 receptor antagonists” (SmithKline Beecham p.l.c., priority 1991, dated 1996)

What was measured:
5-HT4 receptor [1] = target: T1, 5-HT4 receptor (Cavia porcellus, UniProt O70528); assay: 5-HT4 receptor antagonist activity: guinea pig colon (longitudinal muscle-myenteric plexus preparations), reduction of 5-HT-evoked contractions; type: cell-based; conditions: for activity in guinea pig colon, in words: relative to compounds generally active at pIC50 = 6 or more
T1 construct: Longitudinal muscle-myenteric plexus preparations, approximately 3 cm long, are obtained from the distal colon region; from tissue; host or cells: guinea pig distal colon, longitudinal muscle-myenteric plexus preparation
Description: (§1) 5-HT4 RECEPTOR ANTAGONIST ACTIVITY
Male guinea-pigs, weighing 250-400 g are used. Longitudinal muscle-myenteric plexus preparations, approximately 3 cm long, are obtained from the distal colon region. These are suspended under a 0.5 g load in isolated tissue baths containing Krebs solution bubbled with 5% CO2 in O2 and maintained at 37° C. In all experiments, the Krebs solution also contains methiothepin 10^-7 M and granisetron 10^-6 M to block effects at 5-HT1, 5-HT2 and 5-HT3 receptors.
After construction of a simple concentration-response curve with 5-HT, using 30s contact times and a 15rain dosing cycle, a concentration of 5-HT is selected so as to obtain a contraction of the muscle approximately 40-70% maximum(10^-9 M approx). The tissue is then alternately dosed every 15 min with this concentration of 5-HT and then with an approximately equi-effective concentration of the nicotine receptor stimulant, dimethylphenylpiperazinium (DMPP). After obtaining consistent responses to both 5-HT and DMPP, increasing concentrations of a putative 5-HT4 receptor antagonist are then added to the bathing solution. The effects of this compound are then determined as a percentage reduction of the contractions evoked by 5-HT or by DMPP. […] A compound which reduces the response to 5-HT but not to DMPP is believed to act as a 5-HT4 receptor antagonist.

5-HT4 receptor [2] = target: T2, 5-HT4 receptor (Sus scrofa, UniProt Q6Q253); assay: 5-HT4 receptor antagonist activity: piglet atria, piglet spontaneous beating screen; type: cell-based
T2 construct: functional antagonism (pKB)
Description: as §1
Compounds were tested in the piglet spontaneous beating screen (Naunyn-Schmiedeberg's Arch. Pharmacol 342, 619-622). pKB (-log10 KB) value for the compound of Example 21 of EP-A-328200 was 7.6.

T1 sequence (O70528 whole entry): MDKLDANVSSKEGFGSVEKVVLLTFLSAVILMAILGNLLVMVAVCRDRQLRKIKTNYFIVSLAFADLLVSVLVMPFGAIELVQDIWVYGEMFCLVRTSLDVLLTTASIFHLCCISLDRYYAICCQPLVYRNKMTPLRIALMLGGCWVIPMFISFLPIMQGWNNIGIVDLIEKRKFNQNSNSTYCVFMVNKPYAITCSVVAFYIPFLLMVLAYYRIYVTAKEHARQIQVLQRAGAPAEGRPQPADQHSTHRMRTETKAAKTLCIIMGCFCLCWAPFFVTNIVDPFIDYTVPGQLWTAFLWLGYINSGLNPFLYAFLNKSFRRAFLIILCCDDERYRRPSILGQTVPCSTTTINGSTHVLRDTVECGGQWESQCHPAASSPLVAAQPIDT
T2 sequence (Q6Q253 1-402): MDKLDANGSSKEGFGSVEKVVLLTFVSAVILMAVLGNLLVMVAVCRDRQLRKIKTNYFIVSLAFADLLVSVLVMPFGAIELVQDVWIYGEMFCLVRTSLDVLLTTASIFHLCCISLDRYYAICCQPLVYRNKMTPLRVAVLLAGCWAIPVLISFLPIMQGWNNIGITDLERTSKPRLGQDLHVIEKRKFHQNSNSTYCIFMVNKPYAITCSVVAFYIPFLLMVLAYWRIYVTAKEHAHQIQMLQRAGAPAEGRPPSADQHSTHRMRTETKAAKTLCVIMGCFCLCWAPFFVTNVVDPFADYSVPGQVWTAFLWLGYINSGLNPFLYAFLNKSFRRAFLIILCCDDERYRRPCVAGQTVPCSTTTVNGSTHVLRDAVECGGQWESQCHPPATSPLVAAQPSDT

| SMILES | activity in guinea pig colon, in words (5-HT4 receptor [1]) | IC50 (5-HT4 receptor [1]; 5-HT approx 10^-9 M, Krebs solution with methiothepin 10^-7 M and granisetron 10^-6 M, 37° C, read-out: pIC50 (-log concentration of antagonist which reduces the contraction by 50%) (converted)) | pKB (-log10 KB) (5-HT4 receptor [2]) |
| --- | --- | --- | --- |
| CCCCN1CCC(Cc2nc(-c3cn(C)c4ccccc34)no2)CC1 [Example E3] | particularly good activity | – | – |
| Cn1cc(-c2noc(CCN3CCCCC3)n2)c2ccccc21 [Example 21 of EP-A-328200, 1-methyl-3-[5-(2-(1-piperidyl)ethyl)-1,2,4-oxadiazol-3-yl]indole] | – | 50.1 nM | 7.6 |
| CCCCN(C)CCCc1nc(-c2cn(C)c3ccccc23)no1 [Example E1, 5-[3-(N-Methylbutylamino)propyl]-3-[1-methyl-1H-indol-3-yl]-1,2,4-oxadiazole] | particularly good activity | – | – |
